ChEMBL document CHEMBL4888484, “Replenishing the malaria drug discovery pipeline: Screening and hit evaluation of the MMV Hit Generation Library 1 (HGL1) against asexual blood stage Plasmodium falciparum ,using a nano luciferase reporter read-out” (2022)

Legend:
[1] = Hit confirmation in dose-response curve in HepG2 cytotoxicity assay, at 72h; type: toxicity, cell-based; design: timepoint 72 hour; details: human, HepG2 cells
[2] = test system: Plasmodium falciparum; assay: Hit confirmation in dose-response curve in NF54 nanoGlo assay, at 12h; type: functional, organism-based, Erythrocyte; design: timepoint 12 hour; details: Plasmodium falciparum, NF54, Erythrocyte, 12 h
[3] = test system: Plasmodium falciparum; assay: Hit confirmation in dose-response curve in NF54 nanoGlo assay, at 72h; type: functional, organism-based, Erythrocyte; design: timepoint 72 hour; details: Plasmodium falciparum, NF54, Erythrocyte, 72 h
[4] = test system: Plasmodium falciparum; assay: Hit confirmation in dose-response curve in Dd2 pLDH assay, at 72h; type: functional, organism-based; design: timepoint 72 hour; details: Dd2, Erythrocyte
[5] = test system: Plasmodium falciparum; assay: Hit confirmation in dose-response curve in NF54 pLDH assay, at 72h; type: functional, organism-based; design: timepoint 72 hour; details: NF54, Erythrocyte

SMILES | IC50 at 72 h [1] | IC50 [2] | IC50 [3] | IC50 [4] | IC50 [5]
CCc1c(C)nn2c(c1C)c(-c1ccccc1)[n+]1c(C)c(CC)c(C)nc21 | > 10 µM | > 10 µM | 1.7 µM | 1.48 µM | 2.19 µM
CCOC(=O)c1cn(CC)c2cc(NC3CCCCC3)c(F)cc2c1=O | > 10 µM | > 10 µM | 0.724 µM | 0.891 µM | 2.29 µM
CCn1c(-c2cc(NC(=O)c3ccc4c(c3)OCO4)[nH]n2)cc2ccc(OC)cc21 | > 10 µM | 1.7 µM | > 10 µM | > 10 µM | > 10 µM
CCOc1ccc(-[n+]2cc(-c3ccccc3)n3c2CCC3)cc1 | > 10 µM | > 10 µM | 0.832 µM | 1 µM | 0.759 µM
O=C(Nc1onc2c1CCC2)c1ccc2ccccc2c1 | 4.07 µM | 3.02 µM | 2.82 µM | 4.27 µM | 4.79 µM
C[n+]1ccccc1/C=C/c1c[nH]c2ccccc12 | 7.94 µM | 5.01 µM | 0.407 µM | 0.437 µM | 0.676 µM
O=C(c1cc(-c2ccco2)n[nH]1)N1CCC(N2CCC(Oc3ccccc3F)CC2)CC1 | > 10 µM | > 10 µM | 2.82 µM | 4.68 µM | 1.82 µM
Oc1cc(CC[C@H]2CCCCN2)cc(-c2cnc3ccccc3n2)c1 | > 10 µM | 2.09 µM | 1.58 µM | 1.95 µM | 2.75 µM
CCN1CCN(C2CCN(c3ncc(F)c(OC)n3)CC2)CC1 | > 10 µM | > 10 µM | 2.57 µM | > 10 µM | 3.89 µM
Oc1nc(N2CCOC3(CCCC3)C2)ncc1F | > 10 µM | > 10 µM | 2.57 µM | > 10 µM | 4.27 µM
COc1ccc(CC(=N)Nc2cc3cc(OC)c(OC)cc3c(Cc3ccc(OC)c(OC)c3)n2)cc1OC | > 10 µM | 5.01 µM | 2.24 µM | 2 µM | 3.72 µM
Cc1cc(NC(=O)c2ccccn2)n(-c2nc3ccccc3o2)n1 | > 10 µM | > 10 µM | 0.457 µM | 3.16 µM | 3.63 µM
CCn1cc(-c2nc(-c3ccccc3C)no2)c(=O)c2cc(F)c(N3CCOCC3)cc21 | > 10 µM | > 10 µM | 3.55 µM | 4.9 µM | 7.08 µM
CCOc1ccc(NC(=O)c2cn3nc(-c4ccc(OCC)cc4)cc3nc2C2CCN(C(=O)OC(C)(C)C)CC2)cc1 | > 10 µM | > 10 µM | > 10 µM | 7.76 µM | > 10 µM
Cc1cc(C)c(NC(=O)OCc2cccc3cccnc23)c(C)c1 | > 10 µM | > 10 µM | 1.05 µM | 2.29 µM | 2.82 µM
COc1ccc2cccc(NC(=O)c3cc(-c4cc(OC)c(OC)c(OC)c4)n[nH]3)c2n1 | > 10 µM | 9.33 µM | 2.19 µM | > 10 µM | 9.77 µM
COc1cccc(S(=O)(=O)N2CCCN(Cc3ccncc3)[C@H](c3ccccc3)CC(=O)NCC2)c1 | > 10 µM | 2.82 µM | 0.933 µM | 2.19 µM | 3.24 µM
Cc1c(F)cccc1NC(=O)N1CCN(C2=CC3=N[C@@H](C)CN3C=N2)CC1 | > 10 µM | > 10 µM | 3.63 µM | 4.07 µM | 2.69 µM
CCCc1cc(-c2nc(-c3ccc(-n4nc(C)cc4N)cc3)no2)n(C)n1 | > 10 µM | > 10 µM | 0.871 µM | 1.86 µM | 1.82 µM

SMILES | IC50 at 72 h [1] | IC50 [2] | IC50 [3] | IC50 [4] | IC50 [5]
Cc1cc(N)nc(Nc2ccc(Nc3ccccc3)cc2)n1 | > 10 µM | 6.46 µM | 2.24 µM | 5.37 µM | 3.31 µM
Cc1ccc(S(=O)(=O)c2c(NS(=O)(=O)c3ccccc3)n(CCc3ccccc3)c3nc4ccccc4nc23)cc1 | > 10 µM | 1.91 µM | 1.45 µM | 3.02 µM | 3.8 µM
O=C(Nc1cc(-c2onc3c2CCCC3)cc(C(F)(F)F)c1)c1cncc(Br)c1 | > 10 µM | 1.26 µM | 1.2 µM | 2.75 µM | 3.24 µM
CNc1nc(NCCc2ccccc2)nc2ccccc12 | > 10 µM | > 10 µM | 0.912 µM | 0.661 µM | 1.86 µM
NC1CC(NCCc2cccc3cccnc23)c2ccccc21 (stereo not given) | > 10 µM | 5.01 µM | 2.45 µM | 5.75 µM | 7.76 µM
COc1nc(NC[C@H]2CCCN2C(C)C)ncc1F | > 10 µM | > 10 µM | 1.32 µM | > 10 µM | 1.7 µM
N[C@H]1C[C@H](c2cc(NCCCc3cccnc3)nc(C3CC3)n2)C1 | > 10 µM | 3.55 µM | 1.58 µM | 2.04 µM | 2 µM
O=C(NC1=NN2C(=NC(c3ccc(Cl)cc3)=C[C@H]2c2ccc(F)cc2)N1)c1ccc(Cl)cc1 | > 10 µM | 4.17 µM | 2.29 µM | 3.16 µM | 2.95 µM
O=C1c2ccccc2C(c2ccc(NC(=O)c3cccc4ccccc34)cc2)(c2ccc(NC(=O)c3cccc4ccccc34)cc2)c2ccccc21 | > 10 µM | > 10 µM | 0.871 µM | 1.58 µM | 4.47 µM
Cc1cccc2ncnc(N(C)[C@@H](C)Cc3ccc(O)cc3)c12 | > 10 µM | 2.45 µM | 1.86 µM | 2.82 µM | 3.09 µM
Cc1c(C)n(CC(O)CNC(C)c2ccccc2)c2c(Cl)cccc12 (stereo not given) | 10 µM | 3.16 µM | 2 µM | 8.51 µM | 9.77 µM
CC1([C@@](O)(C#CC[N+]2(C)CCCCC2)c2ccccc2)CCCC1 | > 10 µM | > 10 µM | 2.19 µM | 1.26 µM | 1.41 µM
CC(C)O[C@@H]1CCN(C[C@H](O)c2ccc(C(F)(F)F)cc2)C1 | > 10 µM | 3.31 µM | 2.09 µM | 2.82 µM | 3.09 µM
Cc1oc(-c2ccn[nH]2)cc1S(=O)(=O)Nc1cccc(Cl)c1 | > 10 µM | 0.933 µM | 1.48 µM | > 10 µM | 7.76 µM
COc1ccc(-c2cc3n(n2)C[C@@](C)(C(=O)NCc2ccccc2OC)N(c2cccc(OC)c2)C3=O)cc1 | > 10 µM | 4.79 µM | 3.02 µM | > 10 µM | > 10 µM
CCN1CCN(C(=O)c2ccccc2N2CCC(NC(=O)c3cccc(Br)c3)CC2)CC1 | > 10 µM | > 10 µM | 2.51 µM | 5.37 µM | 1.66 µM
COc1cccc(NC(=O)Cn2c(C)ccc(NS(=O)(=O)c3ccc(C)cc3)c2=O)c1 | > 10 µM | 9.12 µM | 3.24 µM | 3.63 µM | 7.94 µM
COc1ccc(-c2nn3c(N4CCN(CC=Cc5ccccc5)CC4)cc(C)nc3c2C)cc1OC | > 10 µM | 3.89 µM | 1.74 µM | 5.37 µM | 7.76 µM
